Tests used:
[1] = biological target: T1, Pyroglutamylated RF-amide peptide receptor (Homo sapiens, UniProt Q96P65); experiment: Antagonist activity at human GPR103 receptor assessed as inhibition of inositol-1-phosphate production by cell-based assay; assay type: functional
T1 sequence (Q96P65 whole entry): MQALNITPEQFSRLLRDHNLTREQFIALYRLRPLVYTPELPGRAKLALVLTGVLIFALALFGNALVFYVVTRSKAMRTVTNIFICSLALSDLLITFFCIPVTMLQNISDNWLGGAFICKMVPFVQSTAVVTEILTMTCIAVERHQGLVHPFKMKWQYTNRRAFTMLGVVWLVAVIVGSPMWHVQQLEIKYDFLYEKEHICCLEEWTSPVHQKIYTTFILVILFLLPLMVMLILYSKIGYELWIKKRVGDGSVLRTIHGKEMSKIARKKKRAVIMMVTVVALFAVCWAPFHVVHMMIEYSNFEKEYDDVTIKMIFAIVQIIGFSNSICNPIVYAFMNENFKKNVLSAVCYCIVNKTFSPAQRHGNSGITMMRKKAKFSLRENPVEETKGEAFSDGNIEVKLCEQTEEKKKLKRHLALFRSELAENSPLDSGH

[2] = Distribution coefficient, log D of the compound at pH 7.4; details: octanol/water
[3] = biological target: T1, Pyroglutamylated RF-amide peptide receptor; experiment: Displacement of [125I]-QRFP43 from human GPR103 receptor overexpressed in HEK membranes after 90 mins by liquid scintillation counting; assay type: cell membranes
[4] = Dissociation constant, pKa of the compound; assay type: physicochemical

Structure (SMILES) | IC50 [1] | logD [2] | IC50 [3] | pKa [4]
N=C(Nc1ccc(Cl)c(CSC2CCCC2)c1)c1cccs1 | 1000 nM | 3.9 | 3980 nM | –
N=C(Nc1ccc(F)c(CSC2CCCC2)c1)c1cccs1 | 501 nM | > 3.9 | 1260 nM | –
COc1ccc(NC(=N)c2ccccc2)cc1CS(=O)(=O)C1CCCC1 | 31600 nM | – | – | –
COc1ccc(NC(=N)c2cccs2)cc1COC1CCCC1 | 2510 nM | 2.7 | 10000 nM | –
COc1ccc(NC(=N)c2ccccc2)cc1CCC1CCCC1 | 316 nM | 3.8 | 200 nM | –
COc1ccc(NC(=O)c2cccs2)cc1CSC1CCCC1 | 7940 nM | > 4.2 | > 31600 nM | –
COc1ccc(NC(=N)c2cc(C)cs2)cc1CSC1CCCC1 | 63.1 nM | 3.7 | 100 nM | –
N=C(Nc1ccc(OC(F)(F)F)c(CSC2CCCC2)c1)c1cccs1 | 2000 nM | > 4.8 | – | –
COc1ccc(Cl)cc1NS(=O)(=O)c1ccc(OC)c2c1CC[C@@H](N(C)C)C2 | 79.4 nM | 2.3 | 79.4 nM | 10.5
CCC(=N)Nc1ccc(OC)c(CSC2CCCC2)c1 | > 39800 nM | 1.2 | – | –
C/N=C(/Nc1ccc(OC)c(CSC2CCCC2)c1)c1cccs1 | 251 nM | 3.1 | 631 nM | –
Cc1cc2nc(NC(=N)N)nc(C)c2cc1C | 2510 nM | < 0.6 | 5010 nM | 9.3
COc1ccc(NC(=N)c2ccccc2)cc1CNC(=O)C1CCCC1 | 2510 nM | 1.1 | 7940 nM | –
COc1ccc(NC(=N)c2ccccc2)cc1CSc1ccccc1 | 1580 nM | 2.6 | 7940 nM | –
Cc1ccc(NC(=N)c2cccs2)cc1CSC1CCCC1 | 1580 nM | > 3.8 | 10000 nM | –
N=C(Nc1cccc(CSC2CCCC2)c1)c1cccs1 | 794 nM | 3.8 | 2510 nM | –
C/N=C(\c1cccs1)N(C)c1ccc(OC)c(CSC2CCCC2)c1 | > 39800 nM | 1.9 | – | –
COc1ccc(NC(=N)c2ccccc2)cc1C[S+]([O-])C1CCCC1 (centres undefined) | > 39800 nM | 0.8 | – | –

The next lines start with the values.

IC50 [1] | logD [2] | IC50 [3] | pKa [4] | Structure (SMILES)
1580 nM | 2.9 | – | – | COc1ccc(NC(=N)c2ccncc2)cc1CSC1CCCC1
50.1 nM | 3.3 | 158 nM | 8.1 | COc1ccc(NC(=N)c2cccs2)cc1CSC1CCCC1
2510 nM | 4 | 25100 nM | – | COc1ccc(NC(=N)c2nccs2)cc1CSC1CCCC1
12.6 nM | 3.7 | 39.8 nM | – | COc1ccc(NC(=N)c2ccc(Cl)cc2)cc1CSC1CCCC1
20 nM | 2.5 | 25.1 nM | – | COc1ccc(NC(=N)c2ccccc2)cc1CSC1CCCC1
1000 nM | 2.8 | 3980 nM | – | COc1ccc(C(=N)Nc2ccccc2)cc1CSC1CCCC1
100 nM | 2.5 | 126 nM | – | COc1ccc(NC(=N)c2ccsc2)cc1CSC1CCCC1
12600 nM | 4.6 | > 31600 nM | – | COc1ccc(Nc2ccccn2)cc1CSC1CCCC1
251 nM | 2.6 | 501 nM | – | COc1ccc(NC(=N)c2cccnc2)cc1CSC1CCCC1
20 nM | > 5 | 126 nM | – | COc1ccc(NC(=N)c2ccc(Br)s2)cc1CSC1CCCC1
158 nM | 4.7 | – | – | COc1ccc(NC(=N)c2cc(Br)cs2)cc1CSC1CCCC1
6310 nM | 2.3 | – | – | COc1ccc(NC(=N)Cc2ccccc2)cc1CSC1CCCC1
